One data set deals with DSS modeled mice. In words: DSS induced model weight and colon length test. The format is in vivo, C57 female mice.
Data set [1] has as its system colonic mucin secretion in DSS model mice. Kind of data set: Intestinal mucin secretion test in DSS-induced model. Type of data set: in vivo, C57 female mice. The source says:
FIG. 3 is a control map of colonic mucin secretion in DSS model mice. It can be obtained from FIG. 3. The DSS group lost epithelial integrity, crypt structure, and goblet cell, company with immune cell infiltration, Smooth muscle cell hypertrophy and reduced secretory glycoprotein when compared with the control group.

Data set [2] deals with TNF-α, IL-17, IL-6, IL-12/IL-23 in colon tissue. As for the experimental part: (§1) C57 female mice were selected and weighed about 20 g. All mice were randomly divided into control group (control group), model group (DSS group), sulfasalazine group (AS group) and low dose group (PF3 group). The middle dose group (PF10 group) and the high dose group (PF30 group), a total of 6 groups, 10 mice in each group.
(§2) The control group was treated with deionized water and the remaining 5 groups were fed with 3% DSS solution.
(§3) During the period, the sulfasalazine group was intragastrically administered at a dose of 0.5 g/kg, and the PF-04447943 low-dose group, the middle-dose group, and the high-dose daily gavage were administered at a dose of 3 mg/kg, 10 mg/kg, and 30 mg/kg, respectively. The body weight, water bottle weight and the record were weighed daily. On the 8th day, the mice were sacrificed by deep anesthesia, and the colon, mesenteric lymph nodes, spleen and anus were taken. The length of the colon was measured and the colon was divided into three sections. The anal part specimens were fixed in formalin and the remaining specimens were stored frozen at −80° C. Isolating the mononuclear cells of colon, mesenteric lymph node and spleen, then staining separately, the distribution of DC cells and Treg cells in colon, mesenteric lymph nodes and spleen were determined by flow cytometry. IL-6, IL-12, TNF-α, IL-17 etc were measured by ELISA. SOD activity and MDA amount in colon tissue were measured, and the effect of PDE9A inhibitor PF-04447943 on mouse model was analyzed.
After intestinal tissue homogenization, TNF-α, IL-17, IL-6, IL-12/IL-23 in colon tissue were determined by ELISA kit.

For data set [3], the system named is DC cells in colon and mesenteric lymph nodes. In words: Activation test of intestinal mucosa DC in DSS induced model (flow cytometry). The format is in vivo, C57 female mice. As for the experimental part:
as §1, §2, §3
The colon was digested with collagenase, and the mesenteric lymph nodes were ground and sieved through 100 mesh to prepare single cell suspensions. The cell density was adjusted to […], and the DC cell amount was determined for each sample.
FIG. 5 is a control plot of total DC and mature DC in colon, mesenteric lymphatic cleansing in DSS model mice.
Background: In flow cytometry, cells or beads pass a laser one at a time.

Data set [4] concerns Treg cells in mesenteric lymph node, spleen and colon. Kind of data set: Activation test of Treg in DSS induction model (flow cytometry). The format is in vivo, C57 female mice. How it is done:
The colon was digested with collagenase, and the mesenteric lymph nodes and spleen tissues were ground and sieved through 100 mesh to prepare single cell suspensions. The cell density was adjusted to 10^5 cell/100 μl, and the Treg amount was determined for each sample.
Related studies have shown that T cells, especially Treg cells, play a role in the protection of DSS inflammatory bowel disease model. In order to study the role of Treg in the DSS colitis model, three mesenteric lymph nodes, spleen and colon were evaluated based on trial 4, respectively.

For data set [5], the system named is SOD activity and MDA amount in colon tissue. As for the experimental part: as §1, §2, §3
After the intestinal tissue homogenization, SOD activity and MDA amount in colon tissue were determined by SOD and MDA assay kits.

A further data set has as its system DSS mice. In words: DSS-induced mouse model, overall comparison with sulfasalazine. The note with it: high-dose PF-04447943 group (30 mg/kg) vs sulfasalazine at conventional dose (0.5 g/kg). Type of data set: in vivo, C57 female mice.
The conditions of data set [6]: cited from earlier work.
[7] abbreviates: high dose group (30 mg/kg) vs DSS group.
Setting [8] is: high, medium and low dose groups vs DSS group.
The mark [9] stands for this setting: high dose group (30 mg/kg) vs DSS group and control group.
Where [10] appears, read: high, medium and low dose groups vs control and DSS groups.

Where two headings read alike, the source gives them in different places.

As for `C[C@@H]1CN(Cc2ncccn2)C[C@H]1c1nc2c(cnn2C2CCOCC2)c(=O)[nH]1` [PF-04447943], the colon length result in the data set on DSS modeled mice (PF30 group (30 mg/kg) vs DSS group) is recorded as “significant difference”. Also, the “weight loss and colon shortening in the DSS-induced model” value in the data set on DSS modeled mice (conclusion, dose not stated) was “inhibited the weight loss and colon shortening”. For the same compound, in data set [1] (conclusion, dose not stated), the “destruction of intestinal mucosal mucin secretion induced by DSS” value is reported as “significantly inhibit”. The “loss of epithelial integrity and crypt structure, loss of goblet cells, immune cell infiltration, smooth muscle cell hypertrophy, secretory glycoprotein reduction” value in data set [1] (low-dose, medium-dose and high-dose groups (3, 10, 30 mg/kg)) is “gradually reversed”. In addition, the “protective effect on colonic epithelial cells” value in data set [1] (with increasing dose of PF-04447943 (3, 10, 30 mg/kg)) is recorded as “gradually better”. The “DSS-induced inflammatory factors secreted by the intestinal mucosa” value in data set [2] (conclusion, dose not stated) is “significantly inhibits”. Further, in data set [2] (setting [7]), the “IL-6 level in colon tissue” value was “significantly lower than those in the DSS group”, the “IL-12/IL-23 level in colon tissue” value is given as “statistically significant compared with the DSS group”, the “IL-17 level in colon tissue” value is reported as “statistically significant compared with the DSS group” and the “TNF-α level in colon tissue” value is “statistically significant compared with the DSS group”. Further, the “IL-6 level in colon tissue” value in data set [2] (middle dose group (10 mg/kg) vs DSS group) is “significantly lower than those in the DSS group”. Moreover, the “migration of DC cells from the colon to the mesenteric lymph nodes and DC maturation” value in data set [3] (conclusion, dose not stated) is given as “can inhibit”. Further, in data set [3] (setting [8]), the “activated DC cells in mesenteric lymph node (MLN)” value is listed as “significantly lower than the DSS group”. Besides, in data set [3] (low, medium and high dose groups (3, 10, 30 mg/kg) vs DSS group), the “activated DC (mDC) cells in colon” value is listed as “significantly lower than the DSS group”. For the same compound, the “total DC cells in mesenteric lymph node (MLN)” value in data set [3] (low, medium and high groups (3, 10, 30 mg/kg) vs DSS group) is listed as “significantly lower than the DSS group”. Also, in data set [4] (conclusion, dose not stated), the “DSS-inhibited Treg activation” value is listed as “significantly enhanced” and the “differentiation of CD4+Foxp3+ Treg cells” value is listed as “significantly induced an increase”. Further, in data set [4] (setting [9]), the “CD4+FOXP3+ Treg cells in colon” value was “significantly higher than that of the DSS group and the control group”; the “CD4+FOXP3+ Treg cells in mesenteric lymph nodes” value was “significantly higher than that of the DSS group and the control group”; the “CD4+FOXP3+ Treg cells in spleen” value is “significantly higher than that of the DSS group and the control group”. Besides, the “CD4+CD25+ Treg cells in colon” value in data set [4] (setting [8]) was “significantly higher in the colon than in the DSS group”. Further, in data set [4] (setting [10]), the “CD4+CD25+ Treg cells in mesenteric lymph nodes” value is reported as “significantly lower” and the “CD4+CD25+ Treg cells in spleen” value was “significantly lower”. The “DSS-induced intestinal oxidative stress damage” value in data set [5] (conclusion, dose not stated) is reported as “significantly inhibit”. Besides, in data set [5] (drug group vs DSS group), the “MDA amount in colon tissue” value was “lower than that of the DSS group”. In data set [5] (setting [7]), the “MDA amount in colon tissue” value is recorded as “statistically different from the DSS group” and the “SOD activity in colon tissue” value was “improved compared with the DSS group”. Besides, in the data set with DSS mice, the “efficacy in IL-6 secretion, SOD activity, MDA amount, activation of DC and regulation of Treg” value is given as “superior to the conventional drug sulfasalazine at conventional dose”.

Consider `O=C(O)c1cc(/N=N/c2ccc(S(=O)(=O)Nc3ccccn3)cc2)ccc1O` [sulfasalazine], for which the “activated DC cells in colon” value in data set [3] (sulfasalazine group 0.5 g/kg, compared with PF-04447943 dose groups) is listed as “lower than the high dose group”.

With “vedolizumab: α4β7 integrin antibody approved by the FDA in 2014 for moderate to severe UC and CD”, the figures for the “patients with adverse reactions” value in data set [6] (CD patients) and in data set [6] (UC patients) were 37% and 29%, respectively. In data set [6] (patients treated with vedolizumab), the clinical improvement result is recorded as “significant Clinical improvement”.

Source of the values: US12213980B2, “Application of PDE9A inhibitor in preparation of products having elevated Treg content, drugs for preventing and treating inflammatory bowel disease and health care products” (ZHEJIANG UNIVERSITY, priority 2018, dated 2025).
